From ChEMBL document CHEMBL5715954, “Silencing c-Myc translation as a therapeutic strategy through targeting PI3Kδ and CK1ε in hematological malignancies” (Blood, 2017)

Experiments:
Set-up in all cases: scale not given: the % may be the effect or the level left
[1] = target: CDK2/Cyclin A1 (Homo sapiens) (UniProt P24941+P78396); assay: Inhibition of human CDK2/Cyclin A1 assessed as enzyme activity at 1 uM using RB Protein as substrate preincubated for 20 mins followed by [gamma-33P]-ATP addition and measured after 120 mins by radiometric Hot-SpotSM Kinase assay relative to control; format: protein-complex assay
[2] = target: CDK1/Cyclin E (Homo sapiens) (UniProt P06493+P24864); assay: Inhibition of human CDK1/cyclin E assessed as enzyme activity at 1 uM using RB Protein as substrate preincubated for 20 mins followed by [gamma-33P]-ATP addition and measured after 120 mins by radiometric Hot-SpotSM Kinase assay relative to control; format: protein-complex assay
Chain of CDK1/Cyclin E (Homo sapiens) (P06493 whole entry, looked up): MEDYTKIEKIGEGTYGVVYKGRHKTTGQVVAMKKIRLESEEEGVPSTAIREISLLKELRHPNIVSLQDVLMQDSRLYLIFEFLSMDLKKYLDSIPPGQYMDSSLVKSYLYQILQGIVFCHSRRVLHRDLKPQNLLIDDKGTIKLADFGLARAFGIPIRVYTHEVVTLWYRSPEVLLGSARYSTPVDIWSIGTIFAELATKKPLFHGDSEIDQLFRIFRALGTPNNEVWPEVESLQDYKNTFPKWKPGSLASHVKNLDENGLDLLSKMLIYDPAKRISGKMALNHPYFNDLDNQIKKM
Chain of CDK1/Cyclin E (Homo sapiens) (P24864 whole entry, looked up): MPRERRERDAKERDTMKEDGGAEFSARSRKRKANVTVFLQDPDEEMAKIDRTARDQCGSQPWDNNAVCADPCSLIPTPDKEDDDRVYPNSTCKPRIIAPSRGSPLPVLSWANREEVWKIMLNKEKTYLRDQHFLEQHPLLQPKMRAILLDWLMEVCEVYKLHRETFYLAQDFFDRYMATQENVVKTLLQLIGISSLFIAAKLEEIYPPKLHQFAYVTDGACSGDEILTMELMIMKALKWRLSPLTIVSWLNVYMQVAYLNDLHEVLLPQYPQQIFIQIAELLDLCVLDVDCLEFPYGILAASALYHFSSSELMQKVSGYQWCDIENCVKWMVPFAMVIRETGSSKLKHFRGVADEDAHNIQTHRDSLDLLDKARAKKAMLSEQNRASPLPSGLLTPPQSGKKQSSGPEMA

[3] = target: Mitogen-activated protein kinase kinase kinase kinase 4 (Homo sapiens) (UniProt O95819); assay: Inhibition of human HGK assessed as enzyme activity at 1 uM using myelin basic protein as substrate preincubated for 20 mins followed by [gamma-33P]-ATP addition and measured after 120 mins by radiometric Hot-SpotSM Kinase assay relative to control
Chain of Mitogen-activated protein kinase kinase kinase kinase 4 (Homo sapiens) (O95819 2-1239 limits assumed): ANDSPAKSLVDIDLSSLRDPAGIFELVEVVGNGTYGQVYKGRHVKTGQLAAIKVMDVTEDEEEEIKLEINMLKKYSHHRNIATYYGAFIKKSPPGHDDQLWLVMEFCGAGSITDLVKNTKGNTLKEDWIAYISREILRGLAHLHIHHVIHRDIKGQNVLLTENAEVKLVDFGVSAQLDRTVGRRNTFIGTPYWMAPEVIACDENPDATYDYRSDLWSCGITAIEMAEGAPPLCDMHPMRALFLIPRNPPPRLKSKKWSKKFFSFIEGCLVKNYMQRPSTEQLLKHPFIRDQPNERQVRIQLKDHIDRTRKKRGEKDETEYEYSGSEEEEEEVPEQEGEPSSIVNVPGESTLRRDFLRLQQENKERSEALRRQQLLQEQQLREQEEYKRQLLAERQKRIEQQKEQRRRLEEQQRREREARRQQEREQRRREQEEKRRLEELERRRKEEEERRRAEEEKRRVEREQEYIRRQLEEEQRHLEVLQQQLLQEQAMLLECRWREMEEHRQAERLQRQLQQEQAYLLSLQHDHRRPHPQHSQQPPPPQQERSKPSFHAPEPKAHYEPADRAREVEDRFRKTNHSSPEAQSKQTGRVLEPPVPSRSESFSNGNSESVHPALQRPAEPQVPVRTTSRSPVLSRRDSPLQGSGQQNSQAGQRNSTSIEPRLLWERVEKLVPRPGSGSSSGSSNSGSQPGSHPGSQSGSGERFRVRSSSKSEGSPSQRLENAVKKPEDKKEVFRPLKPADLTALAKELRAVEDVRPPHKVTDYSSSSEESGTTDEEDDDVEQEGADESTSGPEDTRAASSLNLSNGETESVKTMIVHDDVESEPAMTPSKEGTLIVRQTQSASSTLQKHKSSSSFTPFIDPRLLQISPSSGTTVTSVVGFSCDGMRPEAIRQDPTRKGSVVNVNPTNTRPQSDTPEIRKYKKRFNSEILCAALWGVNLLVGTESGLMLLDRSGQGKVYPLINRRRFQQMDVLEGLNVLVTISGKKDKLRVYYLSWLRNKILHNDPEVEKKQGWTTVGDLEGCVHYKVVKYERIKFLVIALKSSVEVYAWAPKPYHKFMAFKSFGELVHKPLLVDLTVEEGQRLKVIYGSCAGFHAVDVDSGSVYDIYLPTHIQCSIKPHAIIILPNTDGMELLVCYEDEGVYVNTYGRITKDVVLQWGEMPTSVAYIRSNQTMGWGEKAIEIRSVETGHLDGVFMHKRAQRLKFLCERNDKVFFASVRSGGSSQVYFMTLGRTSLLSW

[4] = target: T1, Kinase suppressor of Ras 2 (Homo sapiens) (UniProt Q6VAB6); assay: Inhibition of human KSR2 assessed as enzyme activity at 1 uM using KRREILSRRPSYR as substrate preincubated for 20 mins followed by [gamma-33P]-ATP addition and measured after 120 mins by radiometric Hot-SpotSM Kinase assay relative to control
T1 sequence (whole entry): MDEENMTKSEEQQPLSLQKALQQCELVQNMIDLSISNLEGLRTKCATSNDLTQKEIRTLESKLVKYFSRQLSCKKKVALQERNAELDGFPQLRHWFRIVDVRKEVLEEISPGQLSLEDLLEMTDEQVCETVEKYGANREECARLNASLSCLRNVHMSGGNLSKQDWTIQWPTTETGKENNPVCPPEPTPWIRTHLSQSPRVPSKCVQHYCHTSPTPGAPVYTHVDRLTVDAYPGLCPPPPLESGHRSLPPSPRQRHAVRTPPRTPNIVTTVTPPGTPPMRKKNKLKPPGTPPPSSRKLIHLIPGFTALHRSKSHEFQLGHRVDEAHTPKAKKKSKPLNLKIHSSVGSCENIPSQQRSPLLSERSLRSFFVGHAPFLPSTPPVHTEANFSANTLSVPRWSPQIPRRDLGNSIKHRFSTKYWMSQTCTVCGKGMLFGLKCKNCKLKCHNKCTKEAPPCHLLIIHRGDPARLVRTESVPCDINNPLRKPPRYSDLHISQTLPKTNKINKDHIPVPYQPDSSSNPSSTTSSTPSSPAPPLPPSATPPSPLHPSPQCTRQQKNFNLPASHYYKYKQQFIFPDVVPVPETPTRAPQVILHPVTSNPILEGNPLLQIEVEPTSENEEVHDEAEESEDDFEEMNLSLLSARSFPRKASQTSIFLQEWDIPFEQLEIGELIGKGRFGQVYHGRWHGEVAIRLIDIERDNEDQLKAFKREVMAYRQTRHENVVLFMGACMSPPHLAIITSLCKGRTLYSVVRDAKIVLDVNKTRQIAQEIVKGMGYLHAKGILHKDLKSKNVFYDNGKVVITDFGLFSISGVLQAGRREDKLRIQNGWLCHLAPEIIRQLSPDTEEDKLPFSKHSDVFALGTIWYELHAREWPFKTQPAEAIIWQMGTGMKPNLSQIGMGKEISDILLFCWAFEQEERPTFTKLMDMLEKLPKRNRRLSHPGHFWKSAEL

[5] = target: Serine/threonine-protein kinase 32C (Homo sapiens) (UniProt Q86UX6); assay: Inhibition of human STK32C assessed as enzyme activity at 1 uM using myelin basic protein as substrate preincubated for 20 mins followed by [gamma-33P]-ATP addition and measured after 120 mins by radiometric Hot-SpotSM Kinase assay relative to control
Chain of Serine/threonine-protein kinase 32C (Homo sapiens) (Q86UX6 whole entry): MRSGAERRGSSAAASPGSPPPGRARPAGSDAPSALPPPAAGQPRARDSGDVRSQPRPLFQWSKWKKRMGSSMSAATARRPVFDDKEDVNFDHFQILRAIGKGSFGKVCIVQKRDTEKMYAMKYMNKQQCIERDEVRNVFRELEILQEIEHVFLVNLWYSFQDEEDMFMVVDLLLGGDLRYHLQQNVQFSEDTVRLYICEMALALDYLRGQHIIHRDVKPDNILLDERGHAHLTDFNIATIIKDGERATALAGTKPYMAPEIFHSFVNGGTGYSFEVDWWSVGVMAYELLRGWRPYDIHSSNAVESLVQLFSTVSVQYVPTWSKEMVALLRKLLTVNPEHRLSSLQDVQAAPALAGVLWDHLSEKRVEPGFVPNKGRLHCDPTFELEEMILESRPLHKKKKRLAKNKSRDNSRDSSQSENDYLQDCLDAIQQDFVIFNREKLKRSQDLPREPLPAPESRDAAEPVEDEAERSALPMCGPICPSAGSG

[6] = target: Tyrosine-protein kinase Srms (Homo sapiens) (UniProt Q9H3Y6); assay: Inhibition of human SRMS assessed as enzyme activity at 1 uM using poly[Glu:Tyr] (4:1) as substrate preincubated for 20 mins followed by [gamma-33P]-ATP addition and measured after 120 mins by radiometric Hot-SpotSM Kinase assay relative to control
Chain of Tyrosine-protein kinase Srms (Homo sapiens) (Q9H3Y6 whole entry): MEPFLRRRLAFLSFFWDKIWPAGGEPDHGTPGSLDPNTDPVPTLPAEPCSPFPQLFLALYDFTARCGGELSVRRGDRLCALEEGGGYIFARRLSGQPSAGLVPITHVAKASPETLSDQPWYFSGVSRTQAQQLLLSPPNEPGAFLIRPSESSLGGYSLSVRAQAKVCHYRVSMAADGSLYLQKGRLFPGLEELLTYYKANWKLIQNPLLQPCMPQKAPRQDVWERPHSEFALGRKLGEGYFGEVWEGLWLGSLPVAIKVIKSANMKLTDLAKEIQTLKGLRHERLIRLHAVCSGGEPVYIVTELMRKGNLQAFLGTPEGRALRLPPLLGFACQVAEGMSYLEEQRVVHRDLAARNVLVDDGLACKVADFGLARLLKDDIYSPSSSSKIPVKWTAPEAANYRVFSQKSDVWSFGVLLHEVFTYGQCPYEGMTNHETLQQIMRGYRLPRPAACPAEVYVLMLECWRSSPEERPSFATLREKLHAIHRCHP

[7] = target: Calcium/calmodulin-dependent protein kinase type 1G (Homo sapiens) (UniProt Q96NX5); assay: Inhibition of human CAMK1g assessed as enzyme activity at 1 uM using KKALRRQETVDAL as substrate preincubated for 20 mins followed by [gamma-33P]-ATP addition and measured after 120 mins by radiometric Hot-SpotSM Kinase assay relative to control
Chain of Calcium/calmodulin-dependent protein kinase type 1G (Homo sapiens) (Q96NX5 whole entry): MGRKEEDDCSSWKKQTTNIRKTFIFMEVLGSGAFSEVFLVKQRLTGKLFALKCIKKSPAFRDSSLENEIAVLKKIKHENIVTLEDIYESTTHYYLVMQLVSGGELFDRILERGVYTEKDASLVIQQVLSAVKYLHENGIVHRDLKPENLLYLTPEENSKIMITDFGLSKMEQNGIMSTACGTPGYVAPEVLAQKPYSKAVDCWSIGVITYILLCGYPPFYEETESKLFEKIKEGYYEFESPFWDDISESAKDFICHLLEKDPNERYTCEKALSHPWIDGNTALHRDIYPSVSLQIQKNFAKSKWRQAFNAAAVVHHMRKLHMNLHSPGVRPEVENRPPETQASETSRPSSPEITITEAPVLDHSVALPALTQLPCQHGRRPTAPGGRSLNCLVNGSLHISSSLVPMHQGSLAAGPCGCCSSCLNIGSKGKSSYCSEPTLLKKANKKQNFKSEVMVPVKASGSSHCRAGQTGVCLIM

[8] = target: T2, Serine/threonine-protein kinase TAO1 (Homo sapiens) (UniProt Q7L7X3); assay: Inhibition of human TAOK1 assessed as enzyme activity at 1 uM using myelin basic protein as substrate preincubated for 20 mins followed by [gamma-33P]-ATP addition and measured after 120 mins by radiometric Hot-SpotSM Kinase assay relative to control
T2 sequence (whole entry): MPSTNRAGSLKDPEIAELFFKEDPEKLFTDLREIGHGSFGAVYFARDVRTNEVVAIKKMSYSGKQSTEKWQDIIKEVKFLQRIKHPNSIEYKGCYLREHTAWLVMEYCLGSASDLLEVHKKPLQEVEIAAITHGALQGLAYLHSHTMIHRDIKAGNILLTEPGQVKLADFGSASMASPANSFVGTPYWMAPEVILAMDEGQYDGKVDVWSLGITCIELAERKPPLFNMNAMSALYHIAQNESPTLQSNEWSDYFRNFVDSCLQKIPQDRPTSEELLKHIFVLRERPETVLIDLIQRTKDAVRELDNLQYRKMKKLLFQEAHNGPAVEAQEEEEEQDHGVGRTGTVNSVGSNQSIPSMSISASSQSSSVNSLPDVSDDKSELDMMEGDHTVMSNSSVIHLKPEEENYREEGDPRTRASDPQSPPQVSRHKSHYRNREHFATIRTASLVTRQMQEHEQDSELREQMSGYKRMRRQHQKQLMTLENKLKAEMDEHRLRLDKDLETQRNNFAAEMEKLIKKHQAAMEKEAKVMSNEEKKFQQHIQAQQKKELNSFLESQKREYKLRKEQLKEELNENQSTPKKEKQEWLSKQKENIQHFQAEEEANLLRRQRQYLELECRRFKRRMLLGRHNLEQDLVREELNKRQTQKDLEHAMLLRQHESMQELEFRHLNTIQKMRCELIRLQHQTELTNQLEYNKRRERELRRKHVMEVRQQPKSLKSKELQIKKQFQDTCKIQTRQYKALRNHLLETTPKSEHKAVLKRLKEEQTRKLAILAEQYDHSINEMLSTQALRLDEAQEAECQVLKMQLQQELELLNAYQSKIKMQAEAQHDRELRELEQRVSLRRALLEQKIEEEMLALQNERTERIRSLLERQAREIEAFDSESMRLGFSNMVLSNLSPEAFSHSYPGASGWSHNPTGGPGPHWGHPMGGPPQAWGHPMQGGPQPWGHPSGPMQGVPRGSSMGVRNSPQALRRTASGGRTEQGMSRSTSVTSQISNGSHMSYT

| Compound | Activity [1] | Activity [2] | Activity [3] | Activity [4] | Activity [5] | Activity [6] | Activity [7] | Activity [8] |
| --- | --- | --- | --- | --- | --- | --- | --- | --- |
| C[C@H](Nc1ncnc2nc[nH]c12)c1cc2cccc(Cl)c2c(=O)n1-c1ccccc1 | 79.7% | 91.5% | 97.1% | 91.4% | 94.3% | 100% | 99.1% | 97.9% |
| CC[C@H](Nc1ncnc2[nH]cnc12)c1nc2cccc(F)c2c(=O)n1-c1ccccc1 | 86.7% | 88.5% | 93% | 95% | 105% | 102% | 102% | 101% |
| CC(C)Oc1ccc(-c2nn([C@@H](C)c3oc4ccc(F)cc4c(=O)c3-c3cccc(F)c3)c3ncnc(N)c23)cc1F [UMBRALISIB] | 78% | 86% | 97.1% | 96.2% | 111% | 105% | 98.9% | 92.9% |
